From the NIST ThermoML archive (doi:10.1021/acs.jced.8b00132)
Where “and” joins values, the source holds several entries; their conditions need not be identical. Identical values can stand only once.

Settings: Gas

O=C(C(F)(F)C(F)(F)F)C(F)(C(F)(F)F)C(F)(F)F [dodecafluoro-2-methylpentan-3-one]
Settings | thermal conductivity
453.64 K, 8480 kPa, transient hot wire | 0.04343 W/m/K
453.64 K, 31251 kPa, transient hot wire | 0.05647 W/m/K
453.65 K, 526 kPa, hot wire | 0.02432 W/m/K
453.66 K, 8479 kPa, transient hot wire | 0.04348 W/m/K
453.66 K, 47049 kPa, transient hot wire | 0.06259 W/m/K
453.67 K, 1718 kPa, transient hot wire | 0.02603 W/m/K
453.67 K, 47042 kPa, transient hot wire | 0.06272 W/m/K
453.68 K, 1718 kPa, transient hot wire | 0.02589 W/m/K
453.68 K, 13120 kPa, transient hot wire | 0.04693 W/m/K
453.68 K, 13121 kPa, transient hot wire | 0.04701 W/m/K
453.69 K, 5641 kPa, transient hot wire | 0.04062 W/m/K
453.7 K, 353 kPa, hot wire | 0.02345 W/m/K
453.7 K, 5640 kPa, transient hot wire | 0.04066 W/m/K
453.72 K, 350 kPa, hot wire | 0.02302 W/m/K
453.73 K, 171 kPa, hot wire | 0.02261 W/m/K
453.73 K, 174 kPa, hot wire | 0.0228 W/m/K
453.73 K, 4189 kPa, transient hot wire | 0.03831 W/m/K
453.73 K, 4192 kPa, transient hot wire | 0.03871 W/m/K
453.73 K, 46962 kPa, transient hot wire | 0.06254 W/m/K
453.73 K, 46969 kPa, transient hot wire | 0.06263 W/m/K
453.74 K, 525 kPa, hot wire | 0.0244 W/m/K
453.75 K, 524 kPa, hot wire | 0.02432 W/m/K
453.75 K, 1718 kPa, transient hot wire | 0.02601 W/m/K
453.76 K, 1718 kPa, transient hot wire | 0.02605 W/m/K
453.77 K, 20261 kPa, transient hot wire | 0.05121 W/m/K
453.77 K, 20262 kPa, transient hot wire | 0.0513 W/m/K
453.78 K, 48 kPa, hot wire | 0.02241 W/m/K
453.78 K, 31246 kPa, transient hot wire | 0.0566 W/m/K
453.79 K, 31248 kPa, transient hot wire | 0.05653 W/m/K
453.8 K, 48 kPa, hot wire | 0.02228 W/m/K
453.8 K, 344 kPa, hot wire | 0.0233 W/m/K
453.8 K, 347 kPa, hot wire | 0.02342 W/m/K
453.8 K, 5666 kPa, transient hot wire | 0.0408 W/m/K
453.8 K, 8477 kPa, transient hot wire | 0.04345 W/m/K
453.81 K, 1718 kPa, transient hot wire | 0.02631 W/m/K
453.81 K, 47035 kPa, transient hot wire | 0.06264 W/m/K
453.82 K, 8478 kPa, transient hot wire | 0.0434 W/m/K
453.84 K, 171 kPa, hot wire | 0.02268 W/m/K
453.84 K, 524 kPa, hot wire | 0.02443 W/m/K
453.84 K, 13123 kPa, transient hot wire | 0.04696 W/m/K
453.85 K, 170 kPa, hot wire | 0.02247 W/m/K
453.85 K, 13121 kPa, transient hot wire | 0.04695 W/m/K
453.86 K, 523 kPa, hot wire | 0.02411 W/m/K
453.87 K, 5638 kPa, transient hot wire | 0.0407 W/m/K
453.87 K, 46957 kPa, transient hot wire | 0.06253 W/m/K
453.88 K, 47 kPa, hot wire | 0.02246 W/m/K and 0.02258 W/m/K
453.88 K, 1718 kPa, transient hot wire | 0.02616 W/m/K and 0.02618 W/m/K
453.88 K, 46954 kPa, transient hot wire | 0.06253 W/m/K
453.9 K, 340 kPa, hot wire | 0.02338 W/m/K
453.9 K, 342 kPa, hot wire | 0.02344 W/m/K
453.91 K, 1365 kPa, transient hot wire | 0.02445 W/m/K
453.92 K, 1364 kPa, transient hot wire | 0.02439 W/m/K
453.93 K, 20259 kPa, transient hot wire | 0.05122 W/m/K
453.94 K, 524 kPa, hot wire | 0.02452 W/m/K
453.94 K, 1718 kPa, transient hot wire | 0.02654 W/m/K
453.94 K, 1719 kPa, transient hot wire | 0.02663 W/m/K
453.94 K, 20259 kPa, transient hot wire | 0.05128 W/m/K
453.94 K, 31248 kPa, transient hot wire | 0.05655 W/m/K
453.95 K, 170 kPa, hot wire | 0.0227 W/m/K and 0.02256 W/m/K
453.95 K, 524 kPa, hot wire | 0.02446 W/m/K
453.95 K, 31244 kPa, transient hot wire | 0.05645 W/m/K
453.95 K, 47020 kPa, transient hot wire | 0.06258 W/m/K
453.96 K, 47012 kPa, transient hot wire | 0.06261 W/m/K
453.98 K, 48 kPa, hot wire | 0.02243 W/m/K and 0.02253 W/m/K
454.01 K, 338 kPa, hot wire | 0.02346 W/m/K
454.02 K, 339 kPa, hot wire | 0.02333 W/m/K
454.02 K, 13121 kPa, transient hot wire | 0.047 W/m/K and 0.04696 W/m/K
454.02 K, 46938 kPa, transient hot wire | 0.06262 W/m/K
454.02 K, 46945 kPa, transient hot wire | 0.06264 W/m/K
454.06 K, 523 kPa, hot wire | 0.02445 W/m/K
454.07 K, 170 kPa, hot wire | 0.02273 W/m/K
454.07 K, 522 kPa, hot wire | 0.02433 W/m/K
454.07 K, 1364 kPa, transient hot wire | 0.02449 W/m/K
454.07 K, 1365 kPa, transient hot wire | 0.02446 W/m/K
454.07 K, 1718 kPa, transient hot wire | 0.02688 W/m/K and 0.02682 W/m/K
454.08 K, 169 kPa, hot wire | 0.02266 W/m/K
454.09 K, 48 kPa, hot wire | 0.02257 W/m/K
454.1 K, 48 kPa, hot wire | 0.0225 W/m/K
454.1 K, 20256 kPa, transient hot wire | 0.0513 W/m/K and 0.05118 W/m/K
454.1 K, 31241 kPa, transient hot wire | 0.05644 W/m/K
454.1 K, 31244 kPa, transient hot wire | 0.05644 W/m/K
454.11 K, 47006 kPa, transient hot wire | 0.06269 W/m/K
454.13 K, 337 kPa, hot wire | 0.02342 W/m/K
454.13 K, 338 kPa, hot wire | 0.0234 W/m/K
